# Experimental data from patent US8883183B2, “Medical devices incorporating collagen inhibitors” (Wake Forest University Health Sciences, priority 2008, dated 2014).
# Columns and labels:
# [1] = system: paranasal sinus wounds; test: Rat model of paranasal sinus surgery, HF-coated cellulose pack; type: in vivo; details: topical administration
# Procedure: Topical application of a halofuginone/cellulose derivative packing was tested for the prevention of scar tissue formation in the paranasal sinuses of a rat. The paired, anatomically identical paranasal sinuses of the rat allow one side to serve as a control and the other to serve as experimental. The control sinus was packed with an uncoated cellulose derivative packing material (Merocel). The other (experimental) sinus cavity was packed with a halofuginone bromide coated cellulose derivative compound packing material. A second set of animals underwent paranasal sinus surgery and no packing material of any kind was placed. Both packing preparations provide adequate homeostasis and require removal, as in the human clinical scenario. The surgical wound was closed using absorbable subcuticular sutures. Sinus surgery was performed in the rat and packs placed for 5 days. Sinus specimens were harvested and analyzed.
# In vivo elution studies were performed on packs removed 5 days post-operatively, placed in 10 mL PBS for 8 hrs, and 300 uL aliquot placed in spectrophotometer (blanked with a control pack removed post-operatively).
# [2] = system: full thickness dermal incisions; test: Rat dorsal full thickness dermal incision wound healing model; type: in vivo
# Description: A total of nine animals underwent surgery: three controls and six treatment animals. On each control animal four full thickness dermal incisions were made on the dorsum. The two anterior incisions were closed with uncoated 3-0 Vicryl and N-butyl-2-cyanoacrylate glue; the posterior incisions were closed with Vicryl alone. In the experimental animals four full thickness wounds were made on the dorsum; the two anterior incisions were closed uncoated Vicryl and a mixture of HF—Br and N-butyl-2-cyanoacrylate (0.5 cc of HF—Br was added to 0.5 cc of N-butyl cyanoacrylate glue) was applied topically to the closed wound. The two posterior wounds were closed with HF—Br coated 3-0 Vicryl. Two treatment animals and one control animal were then euthanized at 2, 6, and 12 weeks and soft tissue specimens were taken for analysis.
# Soft tissue samples were harvested, embedded in paraffin and sectioned (5 μm). Sections were stained with Hematoxylin and Eosin (H&E) and Masson's Trichrome. Inflammation scores were recorded according to the method of Storch (Surgical Infections. 2002; 3: 89-98). The area of scar tissue deposition was approximated and calculated with light microscopy and a Zeiss™ digital image capture software system.
# To evaluate levels of newly formed collagen, tissue samples were digested in 1M NaCl in 0.05M Tris. Salt soluble collagen was then bound with a Sircol™ dye detection system and content was measured with UV spectrophotometry at […]. Percent tissue masses of salt soluble collagen were higher in all week 2 samples.
# Tensile strength of dermal wound tissue specimens is assessed by measuring the breaking point with a tensometer. Tissue specimens are harvested and analyzed immediately after animals are sacrificed. The specimens are attached to the tensometer and pressure is applied until the wound breaks. This breaking pressure is recorded as tensile strength.
# Skin samples were harvested so that the plane of the scar would be perpendicular to the direction of force applied. Samples were frozen, re-thawed, and secured by clamps in an tensometer (Instron™ Norwood, Mass.). Force was then applied until samples broke. Ultimate tensile load, percent elongation, and stiffness were then calculated for three control and three HF—Br treated samples at 2 and 12 weeks. Averages were reported. Average stiffness, ultimate tensile load, and percent elongation for all tissue samples increased from 2 to 12 weeks (FIG. 9).
# [3] = In vitro elution of halofuginone from coated Vicryl sutures into PBS; type: physicochemical; details: UV spectroscopy at 243 nm
# Procedure: To determine halofuginone elution, an in vitro elution study was performed. The release of halofuginone from coated Vicryl sutures into phosphate buffered saline (PBS) was used to estimate kinetics of drug release in vivo. A 2.5 cm segment of HF—Br coated Vicryl was placed in 1.5 mL of PBS and incubated at 37° C. At 5, 15, 30, and 45 minutes and 1, 2, 4, 8, 24, 48, 72, and 96 hours the segment was transferred into a new 1.5 mL aliquot of PBS, and the amount of halofuginone from the previous aliquot was measured with UV spectrophotometry at 243 nm. Data from UV spectrophotometry indicated a rapid release of HF—Br into PBS in vitro (FIG. 3). It was approximated that 90% of the total drug mass was released in 30 minutes and that the drug was nearly eliminated in 2 hours.
# [4] = system: alpha 1 collagen gene expression; test: Real time qPCR of alpha 1 collagen gene expression in wound border skin; type: in vivo, rat; details: wounds treated topically, suture only animals
# Description: To determine alpha 1 collagen gene expression (in suture only animals), 2 mm punch biopsies of skin were taken at the border of wounds adjacent to suture material. Samples were flash frozen, pulverized, and RNA was extracted with Trizol reagent. Real time qPCR was employed to measure gene expression using rat 1-alpha-2 collagen ampliset. Relative quantities of alpha 1 collagen gene expression were normalized with expression levels of 18S and GAPDH RNA. These values were then divided by the relative quantity of alpha 1 collagen gene expression in normal skin.
compound,measurement,setting,value
"O=C(CC1NCCCC1O)Cn1cnc2cc(Br)c(Cl)cc2c1=O (centres unmarked) [HF—Br, 7-bromo-6-chloro-3-[3-(3-hydroxy-2-piperidinyl)-2-oxopropyl]-4(3H)]",post-operative scar formation,[1],reduced post-operative scar formation
same,inflammation scores,"[2]; H&E, weeks 2, 6 and 12, vs controls",consistently lower
same,cross sectional areas of collagen deposition (scar),"[2]; Masson's trichrome, vs controls",consistently smaller
same,salt soluble collagen levels,"[2]; Sircol assay, treated vs control, each time point",No significant difference
same,difference in collagen staining between treated and control,[2]; Week 2,2.7 fold
same,wound area approximation,[2]; Week 2,"322,107 μm^2"
same,gross appearance of wounds,"[2]; later time points, vs control",No significant difference in appearance
same,"stiffness, ultimate tensile load and percent elongation (tensile strength)","[2]; rat, in vivo",No significant difference
same,gross appearance of wounds (erythema and induration),"[2]; two weeks, vs control wounds",More erythema and induration were visible in control wounds
same,release of HF—Br into PBS in vitro,[3],rapid drug release
same,1-alpha-2 collagen gene expression,[4],inhibited
